In US20240270809A1, “ORAL GLP RECEPTOR AGONISTS” (priority 2020, published 2024):
Positions of bridges follow the written chain, without caps; N, C: chain ends. Non-standard residues stand in square brackets, D forms with d. Residues, ends and D or L forms follow the SMILES beside them. d(αMeF) = C[C@@](N)(Cc1ccccc1)C(=O)O; αMeL = CC(C)C[C@](C)(N)C(=O)O; Nle = CCCC[C@H](N)C(=O)O; Aib = CC(C)(N)C(=O)O

Experiments:
[1] = target: T1, human GLP1 receptor (Homo sapiens, UniProt P43220); experiment: cAMP accumulation assay, functional agonism of human GLP1 receptor; assay type: cell-based; conditions: HEK cells infected with human GLP1 receptor BacMam virus, HTRF cAMP; for Emax: HEK293, read-out: Human GLP-1R agonist cAMP Emax; for EC50: read-out: Human GLP-1R agonist cAMP pEC50 (converted)
T1 construct: expressed in transfected cells; host or cells: HEK cells, BacMam virus transduction
T1 sequence (P43220 24-463): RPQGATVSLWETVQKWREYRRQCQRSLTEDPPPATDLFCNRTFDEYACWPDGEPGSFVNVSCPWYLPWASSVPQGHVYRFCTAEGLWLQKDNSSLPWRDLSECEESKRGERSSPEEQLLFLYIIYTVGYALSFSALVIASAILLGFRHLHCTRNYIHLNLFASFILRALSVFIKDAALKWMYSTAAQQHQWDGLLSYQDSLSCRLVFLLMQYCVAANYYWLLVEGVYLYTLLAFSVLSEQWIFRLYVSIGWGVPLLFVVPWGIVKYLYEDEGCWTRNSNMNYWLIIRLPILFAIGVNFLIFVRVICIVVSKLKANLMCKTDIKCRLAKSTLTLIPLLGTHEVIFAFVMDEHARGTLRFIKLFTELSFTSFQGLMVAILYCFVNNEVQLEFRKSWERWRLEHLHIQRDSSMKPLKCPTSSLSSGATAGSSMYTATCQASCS
In short: (§1)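 HTRF cAMP read-out: HEK cells expressing GLP1 or GLP2 receptor via 24 h BacMam infection, frozen before use; agonist exposure 45 min, 37° C, HBSS + 0.5 mM IBMX; stopped with detection reagents in lysis buffer.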

[2] = Stability of peptides in rat intestinal fluid (ratIF); conditions: Sprague Dawley, undiluted rat small intestinal fluid (ratIF)
[3] = target: T2, human GLP2 receptor (Homo sapiens, UniProt O95838); experiment: cAMP accumulation assay, functional agonism of human GLP2 receptor; assay type: cell-based; conditions: HEK cells infected with human GLP2 receptor BacMam virus, HTRF cAMP; for Emax: HEK293, read-out: Human GLP-2R agonist cAMP Emax; for EC50: read-out: Human GLP-2R agonist cAMP pEC50 (converted)
T2 construct: expressed in transfected cells; host or cells: HEK cells, BacMam virus transduction
T2 sequence (O95838 1-553): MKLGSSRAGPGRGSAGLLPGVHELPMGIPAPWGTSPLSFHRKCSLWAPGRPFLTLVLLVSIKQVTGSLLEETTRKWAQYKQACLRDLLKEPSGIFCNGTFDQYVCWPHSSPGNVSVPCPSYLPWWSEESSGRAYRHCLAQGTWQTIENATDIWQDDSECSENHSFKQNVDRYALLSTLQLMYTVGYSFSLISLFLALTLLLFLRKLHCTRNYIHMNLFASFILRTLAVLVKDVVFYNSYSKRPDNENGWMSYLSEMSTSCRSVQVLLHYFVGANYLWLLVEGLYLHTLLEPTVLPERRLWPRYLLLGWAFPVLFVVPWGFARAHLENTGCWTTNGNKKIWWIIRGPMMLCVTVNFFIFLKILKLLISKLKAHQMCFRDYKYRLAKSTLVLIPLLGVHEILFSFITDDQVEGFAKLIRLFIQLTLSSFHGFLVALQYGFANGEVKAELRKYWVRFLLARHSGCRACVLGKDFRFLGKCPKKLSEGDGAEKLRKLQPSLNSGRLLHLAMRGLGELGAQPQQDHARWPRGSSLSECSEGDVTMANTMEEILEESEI
In short: as §1

[4] = target: T3, mouse GLP1 receptor (Mus musculus, UniProt O35659); experiment: cAMP accumulation assay, functional agonism of mouse GLP1 receptor; assay type: cell-based; conditions: HEK cells transiently transfected with mouse GLP1 receptor, HTRF cAMP; for Emax: HEK293, read-out: Mouse GLP-1R agonist cAMP Emax; for EC50: read-out: Mouse GLP-1R agonist cAMP pEC50 (converted)
T3 construct: expressed in transfected cells; host or cells: HEK cells, transient transfection with GeneJuice
T3 sequence (O35659 22-463): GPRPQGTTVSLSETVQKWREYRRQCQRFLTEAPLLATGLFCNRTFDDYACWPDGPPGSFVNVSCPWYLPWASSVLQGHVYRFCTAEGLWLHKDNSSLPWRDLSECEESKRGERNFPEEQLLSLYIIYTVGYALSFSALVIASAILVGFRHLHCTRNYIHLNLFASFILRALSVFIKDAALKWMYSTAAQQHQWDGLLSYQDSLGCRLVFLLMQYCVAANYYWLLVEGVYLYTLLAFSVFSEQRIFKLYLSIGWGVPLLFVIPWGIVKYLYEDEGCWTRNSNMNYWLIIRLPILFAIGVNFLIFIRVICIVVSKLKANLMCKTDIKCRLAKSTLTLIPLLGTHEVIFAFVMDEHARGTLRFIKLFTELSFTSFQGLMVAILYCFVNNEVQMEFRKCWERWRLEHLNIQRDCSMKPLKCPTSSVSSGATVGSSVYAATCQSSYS
Protocol: CAMP production upon agonist stimulation of mouse GLP2 or GLP1 receptors was assessed utilizing HiRange cAMP kit (Cisbio). In brief, HEK cells were transiently transfected for 24 hours with cDNA using GeneJuice Transfection reagent (EMD Millipore) and frozen at −80° C. for later use in the assay. […] Cells were prepared in the assay buffer (HBSS (Lonza) supplemented with 0.5 mM IBMX (Tocris)). After 45 min incubation at 37° C., the reaction was stopped by addition of the HTRF detection reagents in the lysis buffer provided in the kit. Following 1-hour incubation at RT, plates were read on Pherastar FS (BMG Labtech, Inc.) using standard HTRF settings. Dotmatics Studies software was used for calculation of pEC50 values by fitting data to a four-parameter concentration response curve.

[5] = target: T4, mouse GLP2 receptor (Mus musculus, UniProt Q5IXF8); experiment: cAMP accumulation assay, functional agonism of mouse GLP2 receptor; assay type: cell-based; conditions: HEK cells transiently transfected with mouse GLP2 receptor, HTRF cAMP; for Emax: HEK293, read-out: Mouse GLP-2R agonist cAMP Emax; for EC50: read-out: Mouse GLP-2R agonist cAMP pEC50 (converted)
T4 construct: expressed in transfected cells; host or cells: HEK cells, transient transfection with GeneJuice
T4 sequence (Q5IXF8 1-512): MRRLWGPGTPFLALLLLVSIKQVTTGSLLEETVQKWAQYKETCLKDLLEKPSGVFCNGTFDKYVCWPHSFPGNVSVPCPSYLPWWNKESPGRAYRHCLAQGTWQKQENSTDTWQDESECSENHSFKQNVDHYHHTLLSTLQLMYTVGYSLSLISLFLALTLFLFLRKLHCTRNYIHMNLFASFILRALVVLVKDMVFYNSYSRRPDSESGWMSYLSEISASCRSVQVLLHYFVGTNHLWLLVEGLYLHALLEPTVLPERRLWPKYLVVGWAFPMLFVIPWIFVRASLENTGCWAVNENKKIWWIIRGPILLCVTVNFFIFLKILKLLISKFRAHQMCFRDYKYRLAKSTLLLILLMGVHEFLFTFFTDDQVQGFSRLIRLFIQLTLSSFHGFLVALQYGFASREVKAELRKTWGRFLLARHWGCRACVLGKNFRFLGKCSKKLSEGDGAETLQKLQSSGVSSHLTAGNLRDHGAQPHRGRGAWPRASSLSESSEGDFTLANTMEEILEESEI
In short: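 pEC50 values come from four-parameter fits of HTRF cAMP signal, read after lysis and 1 h RT incubation. Compounds were incubated 45 min at 37 °C with previously frozen, transiently transfected HEK cells (8000/well) in HBSS containing 0.5 mM IBMX.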

[6] = Stability of peptides in Fasted-State Simulated Intestinal Fluid (FaSSIF); assay type: in vitro ADME; conditions: FaSSIF with 10 mg/ml pancreatin; FaSSIF pH 6.5 with 10 mg/ml pancreatin, 37° C., t = 15 mins

Emax [1] [%] | EC50 [1] [nM] | remaining at 0.5 h [2] [%] | Emax [3] [%] | EC50 [3] [nM] | Emax [4] [%] | EC50 [4] [nM] | Emax [5] [%] | EC50 [5] [nM] | remaining at 0.25 h [6] [%] | SMILES
97.1 | 0.251 | 11 | 99.3 | 0.0631 |  |  |  |  |  | CCCC[C@H](NC(=O)[C@H](CCC(=O)O)NC(=O)[C@@H]1CC(=O)NCCCC[C@H](NC(=O)[C@H](CCC(N)=O)NC(=O)C(C)(C)NC(=O)[C@@H](N)Cc2c[nH]cn2)C(=O)N[C@@H](CO)C(=O)N[C@@H](Cc2ccccc2)C(=O)N[C@@H](CO)C(=O)N1)C(=O)N[C@H](Cc1ccccc1)C(=O)N[C@H](C(=O)N[C@@](C)(CC(C)C)C(=O)N[C@@H](CC(C)C)C(=O)N[C@@H](CC(=O)O)C(=O)N[C@H]1CCC(=O)NCCCC[C@@H](C(=O)N[C@@H](CC(=O)O)C(=O)N[C@@H](Cc2ccccc2)C(=O)N[C@H](C(=O)N[C@H]2CCC(=O)NCCCC[C@@H](C(=O)N[C@H](C(=O)N[C@@H](CCCCN)C(N)=O)[C@@H](C)O)NC(=O)[C@H]([C@@H](C)CC)NC(=O)[C@H](CC(C)C)NC(=O)[C@H](Cc3c[nH]c4ccccc34)NC2=O)[C@@H](C)CC)NC(=O)[C@H](C)NC(=O)[C@H](C)NC(=O)[C@H](CCCCN)NC1=O)[C@@H](C)O [Example 27] (H-H[Aib]QKSFSDE[Nle][dF]T[αMeL]LDEKAAKDFIEWLIKTK-NH2; lactam 4-8, 16-20, 24-28; N-terminus and C-terminus assumed)
97.1 | 0.0316 | 23.3 | 104 | 0.0316 |  |  |  |  |  | CCCC[C@H](NC(=O)[C@H](CCC(=O)O)NC(=O)[C@@H]1CC(=O)NCCCC[C@H](NC(=O)[C@H](CC(=O)O)NC(=O)C(C)(C)NC(=O)[C@@H](N)Cc2c[nH]cn2)C(=O)N[C@@H](CO)C(=O)N[C@@H](Cc2ccccc2)C(=O)N[C@@H](CO)C(=O)N1)C(=O)N[C@](C)(Cc1ccccc1)C(=O)N[C@H](C(=O)N[C@@](C)(CC(C)C)C(=O)N[C@@H](CC(C)C)C(=O)N[C@@H](CC(=O)O)C(=O)N[C@H]1CCC(=O)NCCCC[C@@H](C(=O)N[C@@H](CC(=O)O)C(=O)N[C@@H](Cc2ccccc2)C(=O)N[C@H](C(=O)N[C@H]2CCC(=O)NCCCC[C@@H](C(=O)N[C@H](C(=O)N[C@@H](CCCCN)C(N)=O)[C@@H](C)O)NC(=O)[C@H]([C@@H](C)CC)NC(=O)[C@H](CC(C)C)NC(=O)[C@H](Cc3c[nH]c4ccccc34)NC2=O)[C@@H](C)CC)NC(=O)[C@H](C)NC(=O)[C@H](C)NC(=O)[C@H](CCCCN)NC1=O)[C@@H](C)O [Example 36] (H-H[Aib]DKSFSDE[Nle][d(αMeF)]T[αMeL]LDEKAAKDFIEWLIKTK-NH2; lactam 4-8, 16-20, 24-28; N-terminus and C-terminus assumed)
95.3 | 3.98 |  | 98.6 | 0.00501 | 95.5 | 2.51 | 98.5 | 0.251 | 13.5 | CCCC[C@H](NC(=O)[C@H](CCC(=O)O)NC(=O)[C@H](CC(=O)O)NC(=O)[C@H](CO)NC(=O)[C@H](Cc1ccccc1)NC(=O)[C@H](CO)NC(=O)CNC(=O)[C@H](CC(=O)O)NC(=O)C(C)(C)NC(=O)[C@@H](N)Cc1c[nH]cn1)C(=O)N[C@H](Cc1ccccc1)C(=O)N[C@H](C(=O)N[C@H](C(=O)N[C@@H](CC(C)C)C(=O)N[C@@H](CC(=O)O)C(=O)N[C@@H](CC(C)C)C(=O)N[C@@H](CCCCN)C(=O)N[C@@H](C)C(=O)N[C@@H](C)C(=O)N[C@@H](CCCCN)C(=O)N[C@@H](CC(=O)O)C(=O)N[C@@H](Cc1ccccc1)C(=O)N[C@H](C(=O)N[C@@H](CC(N)=O)C(=O)N[C@@H](Cc1c[nH]c2ccccc12)C(=O)N[C@@H](CC(C)C)C(=O)N[C@H](C(=O)N[C@@H](CCC(N)=O)C(=O)N[C@H]1CCCCNC(=O)CC[C@@H](C(N)=O)NC(=O)[C@H]([C@@H](C)O)NC(=O)[C@H]([C@@H](C)CC)NC(=O)[C@H](CCCCN)NC1=O)[C@@H](C)CC)[C@@H](C)CC)[C@@H](C)CC)[C@@H](C)O [Example 93] (H-H[Aib]DGSFSDE[Nle][dF]TILDLKAAKDFINWLIQKKITE-NH2; lactam 29-33; N-terminus and C-terminus assumed)
97 | 2 |  | 101 | 0.00316 | 96.3 | 1.58 | 99.2 | 0.2 | 3.4 | CCCC[C@H](NC(=O)[C@H](CCC(=O)O)NC(=O)[C@H](CC(=O)O)NC(=O)[C@H](CO)NC(=O)[C@H](Cc1ccccc1)NC(=O)[C@H](CO)NC(=O)CNC(=O)[C@H](CC(=O)O)NC(=O)C(C)(C)NC(=O)[C@@H](N)Cc1c[nH]cn1)C(=O)N[C@H](Cc1ccccc1)C(=O)N[C@H](C(=O)N[C@H](C(=O)N[C@@H](CC(C)C)C(=O)N[C@@H](CC(=O)O)C(=O)N[C@H]1CCCCNC(=O)CC[C@@H](C(=O)N[C@@H](CC(=O)O)C(=O)N[C@@H](Cc2ccccc2)C(=O)N[C@H](C(=O)N[C@@H](CC(N)=O)C(=O)N[C@@H](Cc2c[nH]c3ccccc23)C(=O)N[C@@H](CC(C)C)C(=O)N[C@H](C(=O)N[C@@H](CCC(N)=O)C(=O)N[C@H]2CCCCNC(=O)CC[C@@H](C(N)=O)NC(=O)[C@H]([C@@H](C)O)NC(=O)[C@H]([C@@H](C)CC)NC(=O)[C@H](CCCCN)NC2=O)[C@@H](C)CC)[C@@H](C)CC)NC(=O)[C@H](C)NC(=O)[C@H](C)NC(=O)[C@H](CCCCN)NC1=O)[C@@H](C)CC)[C@@H](C)O [Example 113] (H-H[Aib]DGSFSDE[Nle][dF]TILDKKAAEDFINWLIQKKITE-NH2; lactam 16-20, 29-33; C-terminus assumed)
